Entries after “also recorded” stand apart in the source; their conditions may differ.
Columns and labels:
[1] = target: T1, human PHD2 (PHD2181-417) (Homo sapiens, UniProt Q9GZT9); assay: PHD enzymatic assay ([14C]-succinic acid production); assay type: biochemical; settings: PHD2181-417, HIF-1α peptide 10 μM, average of results; read-out: Enzyme pIC50 (converted)
T1 construct: Smt (SUMO) tag (cleaved yes); made in house; host or cells: E. coli BL21 (pBAD vector)
In short: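 Activity measured as [14C]-succinic acid formed from [5-14C]-2-oxoglutarate over 10 minutes, with peptide substrate at 10 μM, in Tris-HCl pH 7.5 buffer containing catalase, DTT and ascorbate. Unreacted oxoglutarate removed by DNP derivatisation; supernatant beta-counted.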

[2] = tested on: Hep-3B cells; assay: Cellular assay: erythropoietin secretion in Hep-3B cells; assay type: cell-based, human; settings: Homo sapiens, Hep3B, 100 μM compound, 24 hours, percent of EPO secretion relative to assay control compound 7-[(4-Chloro-phenyl)-(5-methyl-isoxazol-3-ylamino)-methyl]-quinolin-8-ol, read-out: Cellular % EPO Stimulation
In short: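 Hep-3B cells in DMEM with 10% FBS, treated 24 h after plating with compounds at 100 μM final for a further 24 h. Secreted EPO in supernatant measured by MSD electrochemiluminescence sandwich immunoassay with anti-EPO detection antibody.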

[3] = Canine study, histological analysis (single dose escalation then repeat dose); assay type: in vivo; design: key to Histology: Stomach / Histology: Testis/Epididymis / Histology: Bone Marrow / Histology: Lung / Histology: Heart / Histology: Test/Epididymis / Histology: Kidney: NSL: No Significant Lesion; settings: oral by stomach tube
Method: Various animal models are assessed for histological analysis. In one example, a canine study was used to assess the effect of 1-[6-(2,6-dimethyl-phenoxy)-7-fluoro-4-oxo-3,4-dihydro-quinazolin-2-yl]-1H-pyrazole-4-carboxylic acid when administered orally by stomach tube in a Single Dose Escalation (SDE) phase, and then subsequently for up to 5 days during the Repeat Dose (RD) phase.

T1 sequence (Q9GZT9 181-417): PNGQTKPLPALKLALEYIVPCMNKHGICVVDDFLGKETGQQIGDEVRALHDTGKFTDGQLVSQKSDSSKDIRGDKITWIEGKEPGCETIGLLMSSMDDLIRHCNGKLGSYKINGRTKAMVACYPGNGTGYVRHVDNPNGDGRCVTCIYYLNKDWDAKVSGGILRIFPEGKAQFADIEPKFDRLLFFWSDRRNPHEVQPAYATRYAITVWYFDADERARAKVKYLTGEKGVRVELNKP

With `Cc1cccc(C)c1Oc1cc2c(=O)[nH]c(-n3cc(C(=O)O)cn3)nc2cc1F` [Example 51, 1-[6-(2,6-Dimethyl-phenoxy)-7-fluoro-4-oxo-3,4-dihydro-quinazolin-2-yl]-1H-pyrazole-4-carboxylic acid] the IC50 [1] was 25.1 nM, the Emax at 100 µM [2] was 100% and the “Histology: Bone Marrow” value ([3]; 10 mg/kg/day-1001 (Male)) was “NSL”. The “Histology: Heart” value ([3]; 10 mg/kg/day-1001 (Male)) was “NSL”, the “Histology: Kidney” value ([3]; 10 mg/kg/day-1001 (Male)) was “Slight, bilateral, acute multi-focal; also recorded: Slight, pelvic mineral deposition (right” and the “Histology: Liver” value ([3]; 10 mg/kg/day-1001 (Male)) was “Slight, acute portal inflammation”. For the same compound, the “Histology: Lung” value ([3]; 10 mg/kg/day-1001 (Male)) was “NSL”, the “Histology: Spleen” value ([3]; 10 mg/kg/day-1001 (Male)) was “Mild EMH, with mild, increased; also recorded: Slight, intra-macrophage brown pigment” and the “Histology: Stomach” value ([3]; 10 mg/kg/day-1001 (Male)) was “NSL”. For the same compound, the “Histology: Testis/Epididymis” value ([3]; 10 mg/kg/day-1001 (Male)) was “NSL”, the “Histology: Bone Marrow” value ([3]; 10 mg/kg/day-1501 (female)) was “NSL” and the “Histology: Heart” value ([3]; 10 mg/kg/day-1501 (female)) was “NSL”. For the same compound, the “Histology: Kidney” value ([3]; 10 mg/kg/day-1501 (female)) was “NSL”, the “Histology: Liver” value ([3]; 10 mg/kg/day-1501 (female)) was “Slight, acute portal inflammation” and the “Histology: Lung” value ([3]; 10 mg/kg/day-1501 (female)) was “NSL”. The “Histology: Spleen” value ([3]; 10 mg/kg/day-1501 (female)) was “Mild EMH, with mild, increased; also recorded: Slight, intra-macrophage brown”, the “Histology: Stomach” value ([3]; 10 mg/kg/day-1501 (female)) was “NSL” and the “Histology: Bone Marrow” value ([3]; 45 mg/kg/day-2001 (Male)) was “BSL”. The “Histology: Heart” value ([3]; 45 mg/kg/day-2001 (Male)) was “NSL”, the “Histology: Kidney” value ([3]; 45 mg/kg/day-2001 (Male)) was “Slight, bilateral, acute multi-focal; also recorded: Multiple cysts with slight interstitial; also recorded: Slight, renal papillary mineralization” and the “Histology: Liver” value ([3]; 45 mg/kg/day-2001 (Male)) was “Mild, acute central-lobular inflammation”. The “Histology: Lung” value ([3]; 45 mg/kg/day-2001 (Male)) was “NSL”, the “Histology: Spleen” value ([3]; 45 mg/kg/day-2001 (Male)) was “Mild EMH; also recorded: Mild, increased megkaryocytes; also recorded: Slight intra-macrophage brown pigment” and the “Histology: Stomach” value ([3]; 45 mg/kg/day-2001 (Male)) was “NSL”. The “Histology: Test/Epididymis” value ([3]; 45 mg/kg/day-2001 (Male)) was “NSL”, the “Histology: Bone Marrow” value ([3]; 45 mg/kg/day-2501(female)) was “NSL” and the “Histology: Kidney” value ([3]; 45 mg/kg/day-2501(female)) was “Slight, bilateral, acute-multi-focal; also recorded: Slight tubular vacuolization”. The “Histology: Liver” value ([3]; 45 mg/kg/day-2501(female)) was “Mild bile duct hyperplasia; also recorded: Multifocal portal tract thrombosis; also recorded: Slight, Kupffer cell brown pigment”, the “Histology: Lung” value ([3]; 45 mg/kg/day-2501(female)) was “NSL” and the “Histology: Spleen” value ([3]; 45 mg/kg/day-2501(female)) was “Mild EMH; also recorded: Mild, increased megkaryocytes; also recorded: Slight intra-macrophage brown”. The “Histology: Stomach” value ([3]; 45 mg/kg/day-2501(female)) was “NSL”.

With `O=C(O)c1cnn(-c2nc3cc(-c4ccccc4Cl)ccc3c(=O)[nH]2)c1` [Example 185, 1-[7-(2-Chloro-phenyl)-4-oxo-3,4-dihydro-quinazolin-2-yl]-1H-pyrazole-4-carboxylic acid] the IC50 [1] was 100 nM and the Emax at 100 µM [2] was 15%.

In the case of `O=C(O)c1cnn(-c2nc3cc(-c4cccc(Cl)c4)ccc3c(=O)[nH]2)c1` [Example 186, 1-[7-(3-Chloro-phenyl)-4-oxo-3,4-dihydro-quinazolin-2-yl]-1H-pyrazole-4-carboxylic acid], the IC50 [1] is reported as 50.1 nM and the Emax at 100 µM [2] is reported as 26%.

`O=C(O)c1cnn(-c2nc3cc(-c4ccc(Cl)cc4)ccc3c(=O)[nH]2)c1` [Example 187, 1-[7-(4-Chloro-phenyl)-4-oxo-3,4-dihydro-quinazolin-2-yl]-1H-pyrazole-4-carboxylic acid] showed an IC50 [1] of 63.1 nM and an Emax at 100 µM [2] of 24%.

Compound `Cc1ccccc1-c1ccc2c(=O)[nH]c(-n3cc(C(=O)O)cn3)nc2c1` [Example 188, 1-(4-Oxo-7-o-tolyl-3,4-dihydro-quinazolin-2-yl)-1H-pyrazole-4-carboxylic acid] has an IC50 [1] of 79.4 nM and an Emax at 100 µM [2] of 11%.

In the case of `Cc1cccc(-c2ccc3c(=O)[nH]c(-n4cc(C(=O)O)cn4)nc3c2)c1` [Example 189, 1-(4-Oxo-7-m-tolyl-3,4-dihydro-quinazolin-2-yl)-1H-pyrazole-4-carboxylic acid], the IC50 [1] is reported as 50.1 nM and the Emax at 100 µM [2] is reported as 25%.

`Cc1cccc(-c2ccc3nc(-n4cc(C(=O)O)cn4)[nH]c(=O)c3c2)c1` [Example 190, 1-(4-Oxo-6-m-tolyl-3,4-dihydro-quinazolin-2-yl)-1H-pyrazole-4-carboxylic acid] gave an IC50 [1] of 25.1 nM and an Emax at 100 µM [2] of 91%.

Compound `Cc1ccc(-c2ccc3nc(-n4cc(C(=O)O)cn4)[nH]c(=O)c3c2)cc1` [Example 191, 1-(4-Oxo-6-p-tolyl-3,4-dihydro-quinazolin-2-yl)-1H-pyrazole-4-carboxylic acid] has an IC50 [1] of 20 nM and an Emax at 100 µM [2] of 31%.

In the case of `O=C(O)c1cnn(-c2nc3ccc(-c4ccccc4Cl)cc3c(=O)[nH]2)c1` [Example 192, 1-[6-(2-Chloro-phenyl)-4-oxo-3,4-dihydro-quinazolin-2-yl]-1H-pyrazole-4-carboxylic acid], the IC50 [1] is reported as 31.6 nM and the Emax at 100 µM [2] is reported as 87%.

`O=C(O)c1cnn(-c2nc3ccc(-c4cccc(Cl)c4)cc3c(=O)[nH]2)c1` [Example 193, 1-[6-(3-Chloro-phenyl)-4-oxo-3,4-dihydro-quinazolin-2-yl]-1H-pyrazole-4-carboxylic acid] gave an IC50 [1] of 31.6 nM and an Emax at 100 µM [2] of 141%.

In the case of `O=C(O)c1cnn(-c2nc3ccc(-c4ccc(Cl)cc4)cc3c(=O)[nH]2)c1` [Example 194, 1-[6-(4-Chloro-phenyl)-4-oxo-3,4-dihydro-quinazolin-2-yl]-1H-pyrazole-4-carboxylic acid], the IC50 [1] is reported as 20 nM and the Emax at 100 µM [2] is reported as 62%.

Compound `O=C(O)c1cnn(-c2nc3ccc(-c4ccccc4F)cc3c(=O)[nH]2)c1` [Example 195, 1-[6-(2-Fluoro-phenyl)-4-oxo-3,4-dihydro-quinazolin-2-yl]-1H-pyrazole-4-carboxylic acid] has an IC50 [1] of 25.1 nM and an Emax at 100 µM [2] of 100%.

`O=C(O)c1cnn(-c2nc3ccc(-c4cccc(F)c4)cc3c(=O)[nH]2)c1` [Example 196, 1-[6-(3-Fluoro-phenyl)-4-oxo-3,4-dihydro-quinazolin-2-yl]-1H-pyrazole-4-carboxylic acid] gave an IC50 [1] of 39.8 nM and an Emax at 100 µM [2] of 92%.

`O=C(O)c1cnn(-c2nc3ccc(-c4ccc(F)cc4)cc3c(=O)[nH]2)c1` [Example 197, 1-[6-(4-Fluoro-phenyl)-4-oxo-3,4-dihydro-quinazolin-2-yl]-1H-pyrazole-4-carboxylic acid] gave an IC50 [1] of 20 nM and an Emax at 100 µM [2] of 108%.

Work on `COc1ccccc1-c1ccc2nc(-n3cc(C(=O)O)cn3)[nH]c(=O)c2c1` [Example 198, 1-[6-(2-Methoxy-phenyl)-4-oxo-3,4-dihydro-quinazolin-2-yl]-1H-pyrazole-4-carboxylic acid] yielded an IC50 [1] of 20 nM and an Emax at 100 µM [2] of 178%.

`COc1cccc(-c2ccc3nc(-n4cc(C(=O)O)cn4)[nH]c(=O)c3c2)c1` [Example 199, 1-[6-(3-Methoxy-phenyl)-4-oxo-3,4-dihydro-quinazolin-2-yl]-1H-pyrazole-4-carboxylic acid] gave an IC50 [1] of 25.1 nM and an Emax at 100 µM [2] of 119%.

Work on `COc1ccc(-c2ccc3nc(-n4cc(C(=O)O)cn4)[nH]c(=O)c3c2)cc1` [Example 200, 1-[6-(4-Methoxy-phenyl)-4-oxo-3,4-dihydro-quinazolin-2-yl]-1H-pyrazole-4-carboxylic acid] yielded an IC50 [1] of 15.8 nM and an Emax at 100 µM [2] of 118%.

`O=C(O)c1cnn(-c2nc3ccc(-c4ccccc4C(F)(F)F)cc3c(=O)[nH]2)c1` [Example 201, 1-[4-Oxo-6-(2-trifluoromethyl-phenyl)-3,4-dihydro-quinazolin-2-yl]-1H-pyrazole-4-carboxylic acid] showed an IC50 [1] of 25.1 nM and an Emax at 100 µM [2] of 78%.

With `O=C(O)c1cnn(-c2nc3ccc(-c4ccccc4OC(F)(F)F)cc3c(=O)[nH]2)c1` [Example 202, 1-[4-Oxo-6-(2-trifluoromethoxy-phenyl)-3,4-dihydro-quinazolin-2-yl]-1H-pyrazole-4-carboxylic acid] the IC50 [1] was 15.8 nM and the Emax at 100 µM [2] was 29%.

`CCc1ccccc1-c1ccc2nc(-n3cc(C(=O)O)cn3)[nH]c(=O)c2c1` [Example 203, 1-[6-(2-Ethyl-phenyl)-4-oxo-3,4-dihydro-quinazolin-2-yl]-1H-pyrazole-4-carboxylic acid] showed an IC50 [1] of 31.6 nM and an Emax at 100 µM [2] of 77%.

`O=C(O)c1cnn(-c2nc3ccc(-c4cccc5c4OCCO5)cc3c(=O)[nH]2)c1` [Example 204, 1-[6-(2,3-Dihydro-benzo[1,4]dioxin-5-yl)-4-oxo-3,4-dihydro-quinazolin-2-yl]-1H-pyrazole-4-carboxylic acid] gave an IC50 [1] of 15.8 nM and an Emax at 100 µM [2] of 111%.

In the case of `O=C(O)c1cnn(-c2nc3ccc(-c4cccc(OC(F)(F)F)c4)cc3c(=O)[nH]2)c1` [Example 205, 1-[4-Oxo-6-(3-trifluoromethoxy-phenyl)-3,4-dihydro-quinazolin-2-yl]-1H-pyrazole-4-carboxylic acid], the IC50 [1] is reported as 25.1 nM and the Emax at 100 µM [2] is reported as 58%.

With `CS(=O)(=O)c1cccc(-c2ccc3nc(-n4cc(C(=O)O)cn4)[nH]c(=O)c3c2)c1` [Example 206, 1-[6-(3-Methanesulfonyl-phenyl)-4-oxo-3,4-dihydro-quinazolin-2-yl]-1H-pyrazole-4-carboxylic acid] the IC50 [1] was 25.1 nM and the Emax at 100 µM [2] was 13%.

`O=C(O)c1cnn(-c2nc3ccc(-c4ccc5c(c4)OCO5)cc3c(=O)[nH]2)c1` [Example 207, 1-(6-Benzo[1,3]dioxol-5-yl-4-oxo-3,4-dihydro-quinazolin-2-yl)-1H-pyrazole-4-carboxylic acid] gave an IC50 [1] of 25.1 nM and an Emax at 100 µM [2] of 84%.

In the case of `O=C(O)c1cnn(-c2nc3cc(I)ccc3c(=O)[nH]2)c1` [Example 208, 1-(7-Iodo-4-oxo-3,4-dihydro-quinazolin-2-yl)-1H-pyrazole-4-carboxylic acid], the IC50 [1] is reported as 126 nM and the Emax at 100 µM [2] is reported as 20%.

From patent US8937078B2, “Quinazolinones as prolyl hydroxylase inhibitors” (Janssen Pharmaceutica NV, priority 2009, dated 2015)
